Results taken from paper PMC11623990, “Deferasirox and Ciprofloxacin: Potential Ternary Complex Formation With Ferric Iron, Pharmacodynamic, and Pharmacokinetic Interactions” (The Scientific World Journal, 2024).
In brackets after ≈: the same amount, converted by molar mass.

Assays:
[1] = Saturation solubility, shake-flask with HPLC; assay type: physicochemical; details: (±SD) in brackets, n = 3
Procedure: The molar ratio of association between iron and either of the drugs was determined by completely dissolving 2.7 mg of the metal complex products in 10 mL of a mixture of butanol, DMSO, and DMF (3:5:2). Solutions were then diluted twice in DMSO and five times in mobile phase before being injected into HPLC. The developed HPLC method was validated for this purpose and for the determination of solubility and partition coefficients (PCs). The optimum conditions developed comprised a phenyl column (4.6 mm ID; 150 mm·L; Thermo Scientific Hypersil) with a mobile phase consisting of 34% acetonitrile in a 50 mM phosphate buffer. The mobile phase mixture contained 0.032% citric acid, 0.02% EDTA, 0.032% hydroxylamine HCl, and 0.07% trimethylamine, with the overall pH adjusted to 3.7. The mobile phase was delivered isocratically at a flow rate of 1.2 mL/min, and chromatograms monitored at 290 nm.
(§1) Excess solid of each compound to be tested was added to 6 mL of either phosphate buffer (pH 6.8), acetate buffer (pH 4.5), or 0.1 M HCl and left on a shaker water bath (37°C) for 24 h. One mL was centrifuged for 10 min, and 100 μL of the supernatant was properly diluted with the mobile phase (1:4) before being injected onto HPLC. For determination of octanol/H2O PC, 0.6 mL of the supernatant solution was transferred to a new tube containing 2 mL of octanol. Tubes containing the two layers of octanol and aqueous phase were kept on shaker water bath (37°C) for 24 h. Aliquots of aqueous layer were properly diluted with the mobile phase before being injected onto HPLC. The concentration of the drug in octanol layer was calculated by difference.

[2] = Apparent octanol/H2O partition coefficient; assay type: physicochemical; details: (±SD) in brackets, n = 3
Procedure: as §1

[3] = Level of DFX in plasma of iron-overloaded rats (HPLC); assay type: in vivo; details: male, Wistar, rat, (SD), N = 8
Procedure: (§2) Ethical approval of the study protocol was obtained from the Institutional Review Board at the University of Jordan (Approval No. 47–2022) on 17th May 2022 (document No. 19/2022/289). Throughout the study, all animals were housed, fed, and treated in accordance with The University of Jordan ethical guidelines for animal protection. The animal house of the University of Jordan, which is equipped with proper ventilation and temperature control (25 ± 4°C) systems, was utilized for the study. Each animal was placed in a separate standard cage. Sixteen male Wistar rats (6 weeks old, average weight 220 ± 10 g) were subjected to an iron-enriched diet containing 2.5% carbonyl iron according to Ackerman et al. for 6 weeks. Another group of eight rats (control group) was subjected to an ordinary pellet diet for the same period. The 16 animals with iron fortified diets were then separated into two groups of eight: the DFX group which received DFX alone and the DFX-CP group which received DFX plus CP, for 6 days. Drugs were given orally through proper mixing with food so that on average, each animal would ingest 30 mg/kg DFX daily incorporated within 15 gm of dried food. For the DFX-CP group, the 15 g dried food contained CP equivalent to 30 mg/kg of animal weight. Blood samples were collected from animals using the orbital venous plexus bleeding method with the aid of ether anesthesia in special EDTA tubes on days 1, 3, and 6 after initiation of the drug treatment. Blood samples were centrifuged, and plasma was collected in Eppendorf tubes and kept at −80°C until time of analysis for DFX. On the sixth day of the treatment, animals were sacrificed by cervical dislocation with the aid of mild anesthesia. […]
DFX was determined in plasma and GIT content using a slightly modified HPLC method from that employed in the solubility studies. […]
The method was properly validated for selectivity, precision, accuracy, and linearity. […] However, CP could not be determined by this method as it was coeluted early with other components of the plasma. […]

[4] = tested on: iron-overloaded rat model; test: Level of iron in blood and other tissues determined by AAS; assay type: in vivo, Wistar rats; details: (SD), n = 8
Procedure: Ethical approval of the study protocol was obtained from the Institutional Review Board at the University of Jordan (Approval No. 47–2022) on 17th May 2022 (document No. 19/2022/289). Throughout the study, all animals were housed, fed, and treated in accordance with The University of Jordan ethical guidelines for animal protection. The animal house of the University of Jordan, which is equipped with proper ventilation and temperature control (25 ± 4°C) systems, was utilized for the study. Each animal was placed in a separate standard cage. Sixteen male Wistar rats (6 weeks old, average weight 220 ± 10 g) were subjected to an iron-enriched diet containing 2.5% carbonyl iron according to Ackerman et al. for 6 weeks. Another group of eight rats (control group) was subjected to an ordinary pellet diet for the same period. The 16 animals with iron fortified diets were then separated into two groups of eight: the DFX group which received DFX alone and the DFX-CP group which received DFX plus CP, for 6 days. Drugs were given orally through proper mixing with food so that on average, each animal would ingest 30 mg/kg DFX daily incorporated within 15 gm of dried food. For the DFX-CP group, the 15 g dried food contained CP equivalent to 30 mg/kg of animal weight. Blood samples were collected from animals using the orbital venous plexus bleeding method with the aid of ether anesthesia in special EDTA tubes on days 1, 3, and 6 after initiation of the drug treatment. Blood samples were centrifuged, and plasma was collected in Eppendorf tubes and kept at −80°C until time of analysis for DFX. On the sixth day of the treatment, animals were sacrificed by cervical dislocation with the aid of mild anesthesia. Liver, heart, kidney, spleen, and the whole gastrointestinal tract (GIT) of all animals were collected and immediately stored in 10% formalin solution for further assessment.
Accurately weighed samples of the tissues to be determined (90–120 mg for liver, and 50–80 mg for heart and spleen) were digested in 1.5 mL of concentrated H2SO4 at 60°C for two days. Samples were vortex mixed and initially diluted 12 times using 2M HCl and filtered using a 0.45 μm PTFE syringe filters. Further dilutions were made if necessary and as appropriate upon sample measurement. Samples were read on Aurora AI1200 atomic absorption spectrophotometer at the specific wavelength of iron. FeCl3 standard solution 1000 μg/mL (Scharlau, Spain) was used to prepare calibration curve solutions. Proper blank samples were prepared along with the calibration curve of standard iron solution. Linearity was established in the range 0.1–8 µg/mL, with a linearity coefficient > 0.99. A typical calibration equation was […]. For statistical analysis, the potential existence of a significant difference between the averages of two groups, a t-test was employed using GraphPad software.

[5] = tested on: iron-overloaded rat model; test: Histological assessment of organs (H&E and Pearl's stain for iron deposits); assay type: in vivo, Wistar rats
Procedure: as §2, with “weight.” for “weight. Blood samples were collected from animals using the orbital venous plexus bleeding method with the aid of ether anesthesia in special EDTA tubes on days 1, 3, and 6 after initiation of the drug treatment. Blood samples were centrifuged, and plasma was collected in Eppendorf tubes and kept at −80°C until time of analysis for DFX. On the sixth day of the treatment, animals were sacrificed by cervical dislocation with the aid of mild anesthesia.”

[6] = set-up: method as in PMID 10508341, doi:10.1002/ejic.200400363; details: practically measured; cited from earlier work
[7] = set-up: method as in PMID 10508341, doi:10.1002/ejic.200400363; details: cited from earlier work

solubility at 24 h ([1]; 0.1 M HCl, pH 1.2, pH 1.2 (0.1 M HCl), 37°C): 9.9 µg/mL (≈ 26.5 µM)
solubility at 24 h ([1]; acetate buffer, pH 4.5, pH 4.5 acetate buffer, 37°C): 19.1 µg/mL (≈ 51.2 µM)
Solubility ([1]; pH 6.8 phosphate buffer, 37°C, 24 h): 140.8 (1.9) μg/mL
solubility at 24 h ([1]; phosphate buffer, 37 °C, pH 6.8, aqueous buffer, thermodynamic from solid, pH 6.8 phosphate buffer): 140 µg/mL (≈ 375 µM)
Apparent partition coefficient ([2]; pH 4.5, 37°C): 2.1 (5.7)
Apparent partition coefficient ([2]; pH 6.8, 37°C): 7.9 (1.11)
concentration at 1 day ([3]; 1 day after start of drugs in food (30 mg/kg daily oral)): 1200 ng/mL
concentration at 3 day ([3]; 3 days after start of drugs in food (30 mg/kg daily oral)): 10700 ng/mL
concentration at 6 day ([3]; 6 days after start of drugs in food (30 mg/kg daily oral)): 9700 ng/mL
SMILES: O=C(O)c1ccc(-n2nc(-c3ccccc3O)nc2-c2ccccc2O)cc1 [DFX, Deferasirox]
Content of iron in dried tissue ([4]; dried blood, 3 days after initiation of chelation therapy): 4.73 (0.2) mg/100g of tissue
Content of iron in dried tissue ([4]; dried blood, 6 days after initiation of chelation therapy): 4.94 (0.2) mg/100g of tissue
Content of iron in dried tissue ([4]; heart, after 6 days of treatment): 50.3 (2.7) mg/100g of tissue
Content of iron in dried tissue ([4]; liver, after 6 days of treatment): 162.6 (10.1) mg/100g of tissue
Content of iron in dried tissue ([4]; spleen, after 6 days of treatment): 168.8 (9.8) mg/100g of tissue
Iron deposition in spleen tissue (Pearl's stain) ([5]; compared with the combined treatment group and the control group, seen in six out of eight animals): clearly higher levels of deposited iron
Iron deposition in liver tissue (Pearl's stain) ([5]; compared with the combined treatment group, seen in six of eight animals): higher level of iron deposition
Formation constants of DFX to Fe^3+ [6]: 10^37-10^38
Affinity of DFX to Fe^2+ [7]: very low affinity
